pIC50, pKi: −log10 of the molar value. Read-outs that look alike come from different tables or passages of the source.
Assays:
[1] = tested on: Human platelet aggregation caused by ADP; test: Inhibition of ADP-induced platelet aggregation (Mimic-human PRP); type: cell-based; settings: 20 μM ADP, human platelet concentrate diluted with PPP, absorption at 595 nm
Summary of the method: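 Human PRP diluted with PPP to 3–4×10^8 platelets/mL was preincubated 20 min at room temperature with compound (0.01–30 μM, DMSO), then stimulated with 20 μM ADP. Aggregation read as A595 increase at 3 min versus 0 and 20 μM ADP controls; Ki from sigmoidal non-linear regression.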

Human P2Y12 receptor = molecular target: T1, Human P2Y12 receptor (Homo sapiens, UniProt Q9H244); test: Human P2Y12 receptor cell membrane binding assay with [3H] 2-Mes-ADP
T1 construct: expressed in transfected cells; host or cells: HEK cells
Summary of the method: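 Membranes from HEK cells expressing human P2Y12 were incubated with compound and 1 nM [3H]2-MeS-ADP for 1 h at room temperature. Bound radioactivity was collected by GF/B filtration.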

[2] = 1 nM [3H] 2-Mes-ADP, membranes of HEK cells expressing P2Y12 receptor, read-out: Binding activity (IC50)

T1 sequence (Q9H244 whole entry): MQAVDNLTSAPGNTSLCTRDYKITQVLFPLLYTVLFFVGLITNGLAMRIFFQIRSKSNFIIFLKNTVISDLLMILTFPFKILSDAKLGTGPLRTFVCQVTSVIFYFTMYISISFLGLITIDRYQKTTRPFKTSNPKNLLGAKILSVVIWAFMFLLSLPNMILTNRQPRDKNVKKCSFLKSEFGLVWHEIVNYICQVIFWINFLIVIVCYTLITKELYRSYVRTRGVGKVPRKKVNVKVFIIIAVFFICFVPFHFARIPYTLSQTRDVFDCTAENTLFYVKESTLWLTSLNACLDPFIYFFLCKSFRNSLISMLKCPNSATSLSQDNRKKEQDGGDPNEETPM

| SMILES | pKi [1] | pIC50 (Human P2Y12 receptor; [2]) | pIC50 (Human P2Y12 receptor) |
| --- | --- | --- | --- |
| CCCc1cc2c(N3CCn4c(nnc4C(F)(F)F)C3)nc(N3CC[C@@H](C(=O)OCOC(=O)C(C)(C)C)C3)nc2s1 [Example 1-63, (R)-1-[6-Propyl-4-(3-trifluoromethyl-5,6-dihydro-8H-[1,2,4]triazolo[4,3-a]pyrazin-7-yl)-thieno[2,3-d]pyrimidin-2-yl]-pyrrolidine-3-carboxylic acid 2,2-dimethyl-propionyloxymethyl ester] | 6.00 | 6.28 | – |
| CCCc1cc2c(N3CCn4c(nnc4C(F)(F)F)C3)nc(N[C@H]3CCNC3)nc2s1 [Example 1-126, [6-Propyl-4-(3-trifluoromethyl-5,6-dihydro-8H-[1,2,4]triazolo[4,3-a]pyrazin-7-yl)-thieno[2,3-d]pyrimidin-2-yl]-(S)-pyrrolidin-3-yl-amine] | 7.54 | 6.89 | – |
| CCCc1cc2c(N3CCn4c(nnc4C(F)(F)F)C3)nc(-c3nnc(CC(=O)O)o3)nc2s1 [Example 4-41, {5-[6-Propyl-4-(3-trifluoromethyl-5,6-dihydro-8H-[1,2,4]triazolo[4,3-a]pyrazin-7-yl)thieno[2,3-d]pyrimidin-2-yl]-[1,3,4]oxadiazol-2-yl}acetic acid] | 6.15 | 6.39 | – |
| CCCc1cc2c(N3CCn4c(nnc4C(F)(F)F)C3)nc(-c3nc(CC(OC)OC)no3)nc2s1 [Example 4-31, 7-{2-[3-(2,2-Dimethoxy-ethyl)-[1,2,4]oxadiazol-5-yl]-6-propyl-thieno[2,3-d]pyrimidin-4-yl}-3-trifluoromethyl-5,6,7,8-tetrahydro-[1,2,4]triazolo[4,3-a]pyrazine] | < 5.40 | 6.38 | – |
| CCCc1cc2c(N3CCn4c(nnc4C(F)(F)F)C3)nc(OCc3ccccn3)nc2s1 [Example 3-23, 7-[6-Propyl-2-(pyridin-2-ylmethoxy)-thieno[2,3-d]pyrimidin-4-yl]-3-trifluoromethyl-5,6,7,8-tetrahydro-[1,2,4]triazolo[4,3-a]pyrazine] | < 5.40 | 6.43 | – |
| CCCc1cc2c(N3CCn4c(nnc4C(F)(F)F)C3)nc(Nc3nc(C(=O)O)cs3)nc2s1 [Example 1-132, 2-[6-Propyl-4-(3-trifluoromethyl-5,6-dihydro-8H-[1,2,4]triazolo[4,3-a]pyrazin-7-yl)thieno[2,3-d]pyrimidin-2-ylamino]thiazole-4-carboxylic acid] | 7.00 | 7.33 | – |
| CCCc1cc2c(N3CCn4c(nnc4C(F)(F)F)C3)nc(NCCOCCO)nc2s1 [Example 1-123, 2-{2-[6-Propyl-4-(3-trifluoromethyl-5,6-dihydro-8H-[1,2,4]triazolo[4,3-a]pyrazin-7-yl)-thieno[2,3-d]pyrimidin-2-ylamino]-ethoxy}-ethanol] | 6.44 | 6.59 | – |
| CCCc1cc2c(N3CCn4c(nnc4C(F)(F)F)C3)nc(OCCNC(=O)c3ccccn3)nc2s1 [Example 3-70, Pyridine-2-carboxylic acid {2-[6-propyl-4-(3-trifluoromethyl-5,6-dihydro-8H-[1,2,4]triazolo[4,3-a]pyrazin-7-yl)-thieno[2,3-d]pyrimidin-2-yloxy]-ethyl}-amide] | 8.15 | 7.77 | – |
| CCCc1cc2c(N3CCn4c(nnc4C(F)(F)F)C3)nc(OCCC(=O)O)nc2s1 [Example 3-11, 3-[6-Propyl-4-(3-trifluoromethyl-5,6-dihydro-8H-[1,2,4]triazolo[4,3-a]pyrazin-7-yl)-thieno[2,3-d]pyrimidin-2-yloxy]-propionic acid] | 7.15 | 7.14 | – |
| CCCc1cc2c(N3CCn4c(nnc4C(F)(F)F)C3)nc(N3CCn4cnnc4C3)nc2s1 [Example 1-75, 7-[2-(5,6-Dihydro-8H-[1,2,4]triazolo[4,3-a]pyrazin-7-yl)-6-propyl-thieno[2,3-d]pyrimidin-4-yl]-3-trifluoromethyl-5,6,7,8-tetrahydro-[1,2,4]triazolo[4,3-a]pyrazine] | 8.15 | 7.49 | – |
| CCc1cc2c(N3CCn4c(nnc4C(F)(F)F)C3)nc(N3CCNC(=O)C3)nc2s1 [Example 2-2, 4-[6-Ethyl-4-(3-trifluoromethyl-5,6-dihydro-8H-[1,2,4]triazolo[4,3-a]pyrazin-7-yl)-thieno[2,3-d]pyrimidin-2-yl]-piperazin-2-one] | 6.08 | 7.01 | – |
| CCCc1cc2c(N3CCn4c(nnc4C(F)(F)F)C3)nc(NCCN3CSCC3=O)nc2s1 [Example 1-128, 3-{2-[6-Propyl-4-(3-trifluoromethyl-5,6-dihydro-8H-[1,2,4]triazolo[4,3-a]pyrazin-7-yl)-thieno[2,3-d]pyrimidin-2-ylamino]-ethyl}-thiazolidin-4-one] | 7.21 | 7.00 | – |
| CCc1cc2c(N3CCn4c(nnc4C(F)(F)F)C3)nc(CO)nc2s1 [Example 4-18, [6-Ethyl-4-(3-trifluoromethyl-5,6-dihydro-8H-[1,2,4]triazolo[4,3-a]pyrazin-7-yl)thieno[2,3-d]pyrimidin-2-yl]methanol] | 5.80 | 5.82 | – |
| CCCc1cc2c(N3CCn4c(nnc4C(F)(F)F)C3)nc(-c3nnc(CC#N)o3)nc2s1 [Example 4-34, {5-[6-Propyl-4-(3-trifluoromethyl-5,6-dihydro-8H-[1,2,4]triazolo[4,3-a]pyrazin-7-yl)thieno[2,3-d]pyrimidin-2-yl]-[1,3,4]oxadiazol-2-yl}acetonitrile] | 7.89 | 7.17 | – |
| CCCc1cc2c(N3CCn4c(nnc4C(F)(F)F)C3)nc(N3CC3C(=O)OC)nc2s1 (centres unmarked) [Example 1-96, 1-[6-Propyl-4-(3-trifluoromethyl-5,6-dihydro-8H-[1,2,4]triazolo[4,3-a]pyrazin-7-yl)-thieno[2,3-d]pyrimidin-2-yl]-aziridine-2-carboxylic acid methyl ester] | 7.68 | – | 6.20 |
| CCCc1cc2c(N3CCn4c(nnc4C(F)(F)F)C3)nc(C(=O)NCCC(=O)O)nc2s1 [Example 4-7, 3-{[6-Propyl-4-(3-trifluoromethyl-5,6-dihydro-8H-[1,2,4]triazolo[4,3-a]pyrazin-7-yl)thieno[2,3-d]pyrimidine-2-carbonyl]amino}propionic acid] | 6.49 | 6.21 | – |
| CCCc1cc2c(N3CCn4c(nnc4C(F)(F)F)C3)nc(N3CCCC3CO)nc2s1 (centres unmarked) [Example 1-30, {1-[6-Propyl-4-(3-trifluoromethyl-5,6-dihydro-8H-[1,2,4]triazolo[4,3-a]pyrazin-7-yl)-thieno[2,3-d]pyrimidin-2-yl]-pyrrolidin-2-yl}-methanol] | 7.05 | 7.18 | – |
| CCCc1cc2c(N3CCn4c(nnc4C(F)(F)F)C3)nc(OCc3nc(CC(=O)O)co3)nc2s1 [Example 3-19, {2-[6-Propyl-4-(3-trifluoromethyl-5,6-dihydro-8H-[1,2,4]triazolo[4,3-a]pyrazin-7-yl)-thieno[2,3-d]pyrimidin-2-yloxymethyl]-oxazol-4-yl}-acetic acid] | < 5.40 | 6.77 | – |
| CCCc1nc2c(N3CCn4c(nnc4C(F)(F)F)C3)nc(N3CCNC(=O)C3)nc2s1 [Example 5-4, 4-[2-Propyl-7-(3-trifluoromethyl-5,6-dihydro-8H-[1,2,4]triazolo[4,3-a]pyrazin-7-yl)-thiazolo[5,4-d]pyrimidin-5-yl]-piperazin-2-one] | 7.24 | 7.14 | – |
